Measurements published in patent US5260340A, “Prevention and amelioration of acetaminophen toxicity with beta-carotene” (priority 1992, dated 1993).
Like-named read-outs stand apart in the source and are kept apart here.

Assays:
acetaminophen toxicity [1] = test: Prevention of acetaminophen toxicity, simultaneous administration (Example 6): survival and body weight; format: in vivo, 129ReJ mice; conditions: beta-carotene diet
Description: (§1) The total amount of beta-carotene consumed by mice in each experiment was computed using the estimates that a 25 gram mouse will consume […] of food and 25 ml/day of water, under normal conditions.
Ten 129ReJ mice (The Jackson Laboratory) were starved for twelve hours during which time they lost 4% of their original weight. The mice were then given drinking bottles containing a 0.1% aqueous solution of acetaminophen (Fisher Scientific). The mice were given a Modified HLR 341 diet with 10 percent of 10% beta-carotene beadlets, 10% safflower oil, 6% lard, 1.6 mg/kg of vitamin K, and 4000 IU/kg of vitamin A (Dyets, Inc.). The food regimen was continued throughout the remainder of the experiment.
At the sixtieth hour, all of the mice received an IP injection of 300 mg/kg of acetaminophen, and the drinking bottles were filled with pure water.

[2] = mammals; cited from earlier work
[3] = test system: toxic side effects of antibiotics; conditions: plants; cited from earlier work
[4] = test system: Kupffer cells of the liver; conditions: in vivo; cited from earlier work
[5] = human; not yet determined; cited from earlier work
acetaminophen toxicity [6] = test: Prevention of acetaminophen toxicity, simultaneous administration (Example 5): survival; format: in vivo, DBA/2J mice; conditions: about 20 mg total beta-carotene per mouse by hour 24; 1% acetaminophen in water, 500 mg/kg IP at hours 24 and 30
Description: as §1
Four DBA/2J mice (The Jackson Laboratory) were weighed. Food was removed, and the mice were given drinking bottles containing a one percent aqueous solution of acetaminophen (Fisher Scientific) and 60 mg of beta-carotene per 100 ml ("Twinlab"--Twin Laboratories--Ronkonkoma, N.Y.). After twenty-two hours, the mice were given a Modified HLR 341 diet having 10 percent of 10% beta-carotene beadlets, 10% safflower oil food pellets, 6% lard, 1.6 mg/kg of vitamin K, and 4000 IU/kg of vitamin A (Dyets, Inc.). Each mouse ingested about 20 mg total beta-carotene from the water and food by the twenty-fourth hour.
At the twenty-fourth and thirtieth hours, all of the mice received an IP injection of 500 mg/kg of acetaminophen dissolved in 20% Tween 80 (Sigma Chemical Co.) in saline. At the forty-eighth hour, all of the mice were weighed, and the drinking bottles were filled with pure water.

[7] = test system: aflatoxin-induced liver toxicity; conditions: chickens; simultaneous administration; cited from earlier work
acetaminophen toxicity [8] = test: Antidotal treatment of acetaminophen toxicity (Example 7): survival and weight restoration; format: in vivo, 129/ReJ mice
Description: as §1
(§2) The design of this experiment was predicated on the clinical time sequence involved in, or associated with, acetaminophen overdose and toxicity, and the biological response of mice to lethal injections of this drug. When a human ingests a toxic, potentially lethal dose of acetaminophen, few if any, clinical signs manifest during the first forty-eight hours. The patient remains alert and can take food voluntarily or by a nasal gastric tube. […] Because the time course of human toxicity implies that a patient could orally ingest an antidote such as beta-carotene within the forty-eight hour period immediately following an overdose, it was proposed that a comparative animal model would be feeding subjects with a beta-carotene diet for forty-eight hours prior to the administration of a known lethal dose of acetaminophen.
Eight 129/ReJ mice (The Jackson Laboratory) were wholly or partially starved for seventy-two hours to enhance their appetite. Mean weight loss during this period was 13%. […] Each mouse ingested about 0.1 gram of beta-carotene by the forty-eighth hour. […]

cytochrome P450 = conditions: fourteen days of dietary beta-carotene supplement; mouse liver homogenates; cited from earlier work
acetaminophen toxicity [9] = test: Antidotal treatment of acetaminophen toxicity (Example 8): survival and weight regain; format: in vivo, DBA/2J mice
Description: as §1, §2
Twelve DBA/2J mice (The Jackson Laboratory) were weighed and starved for seventy-two hours. The mean weight loss during this time was 27%. The mice received a Modified HLR 341 diet with 10 percent of 10% beta-carotene beadlets, 10% safflower oil, 6% lard, 1.6 mg/kg of vitamin K, and […] of vitamin A (Dyets, Inc.). The mice regained 86% of their original weight. Each mouse ingested about 0.1 gram of beta-carotene by the forty-eighth hour.
After forty-eight hours on the experimental diet, the mice received an IP injection of 800 mg/kg of acetaminophen (Fisher Scientific) dissolved in 20% Tween 80 (Sigma Chemical Co.) in saline.
The mice were reweighed, and a second injection of 600 mg/kg of acetaminophen dissolved in 20% Tween 80 in saline was given to each mouse. By seventy hours after the first injection, 92% of the mice were alive.

acetaminophen toxicity [10] = test: Prevention of acetaminophen toxicity, pre-administration of beta-carotene in the diet: survival after IP acetaminophen 800 mg/kg; format: in vivo, 129/ReJ mice; conditions: for mice alive seventy-two hours after injection: 800 mg/kg acetaminophen IP; for Survival 72 Hours After Ingestion (%) / Survival 72 Hours After Ingestion, Survivors/Sample: acetaminophen 800 mg/kg IP
Description: as §1
Nine 129/ReJ mice, (The Jackson Laboratory-Bar Harbor, Me.) were pre-fed a diet of Modified HLR 341 with 10 percent of 10% beta-carotene beadlets, 1.6 mg/kg of vitamin K, and 4,000 IU/kg of vitamin A (Dyets, Inc.--Bethlehem, Pa.) for a period of five months. Each mouse ingested about 7.5 grams of beta-carotene.
Each mouse then received an intraperitoneal (IP) injection of 800 mg/kg of acetaminophen (Fisher Scientific-Pittsburgh, Pa.) dissolved in 20% Tween 80 (Sigma Chemical Company -- St. Louis, Mo.) in saline. […]

toxicity due to aspirin = conditions: in vivo; cited from earlier work
[11] = cited from earlier work
mice = test: Feeding of mice following IP injection of a lethal dose of acetaminophen; format: in vivo
liver = conditions: cited from earlier work
[12] = cited from earlier work; remark: listed apart in the source
[13] = test system: duodenal ulcers and stress ulcers; conditions: rats fed 3-, 4-diaminotoluene; cited from earlier work
[14] = acetaminophen in water, 600 mg/kg IP after hour 48 and 300 mg/kg IP at hour 60
[15] = forty-eight hours on beta-carotene diet after starvation, before acetaminophen

## CC1=C(/C=C/C(C)=C/C=C/C(C)=C/C=C/C=C(C)/C=C/C=C(C)/C=C/C2=C(C)CCCC2(C)C)C(C)(C)CCC1 [beta-carotene]
Acetaminophen toxicity [1]; 0.1% aqueous acetaminophen
  body weight after twenty-four hours: regained or increased their original weight
Acetaminophen toxicity [1]; 0.5% aqueous acetaminophen
  body weight after the forty-eighth hour: maintenance of the mice's original weight
Acetaminophen toxicity [1]; [14]
  animals alive at the seventy-second hour: all of the animals were alive
  mice alive at the one hundred fiftieth hour: 90%
Acetaminophen toxicity [1]; acetaminophen in water, 600 and 300 mg/kg IP
  body weight, of original weights, at the one hundred fiftieth hour: 93%
[2]
  oxidative cleavage at the central double bond: readily undergoes oxidative cleavage at the central double bond
[3]
  toxic side effects of antibiotics: prevent the toxic side effects of antibiotics
[4]
  deposition in liver cells: deposited in, and remains sequestered in, only the Kupffer cells of the liver
[5]
  safe upper limit (believed): at least 1,000 mg/day
Acetaminophen toxicity [6]
  mice alive by the seventy-second hour: 75%
[7]
  aflatoxin-induced liver toxicity: reduction of aflatoxin-induced liver toxicity
Acetaminophen toxicity [8]; beta-carotene diet for forty-eight hours (about 0.1 gram per mouse), 800 mg/kg acetaminophen IP
  mice alive seventy-two hours after injection: 63%
Acetaminophen toxicity [8]; [15]
  restoration of original weight: 98%
Cytochrome P450
  cytochrome P450: reduced cytochrome P450
Acetaminophen toxicity [9]; about 0.1 gram beta-carotene, acetaminophen 800 mg/kg IP then 600 mg/kg
  mice alive by seventy hours after the first injection: 92%
Acetaminophen toxicity [9]; [15]
  regain of original weight: 86%
Acetaminophen toxicity [9]; twelve mice, about 0.1 gram beta-carotene, 800 mg/kg acetaminophen IP
  mice that had died by thirty-six hours after the injection: one mouse had died
Acetaminophen toxicity [10]; administration before challenge with toxic amounts of acetaminophen
  survival rate compared with Comparative Examples 1A*-4A*: increases the survival rate significantly
Acetaminophen toxicity [10]; nine mice, pre-fed five months (about 7.5 grams beta-carotene)
  mice alive seventy-two hours after injection: all mice were alive
Acetaminophen toxicity [10]; nineteen mice, pre-fed seven days (about 0.35 grams beta-carotene)
  mice alive seventy-two hours after injection: five of the mice were alive
Acetaminophen toxicity [10]; pre-feeding 5 Months
  Survival 72 Hours After Ingestion (%): 100%
  Survival 72 Hours After Ingestion, Survivors/Sample: 9/9
Acetaminophen toxicity [10]; pre-feeding 5 Weeks
  Survival 72 Hours After Ingestion (%): 65%
  Survival 72 Hours After Ingestion, Survivors/Sample: 13/20
Acetaminophen toxicity [10]; pre-feeding 7 Days
  Survival 72 Hours After Ingestion (%): 26%
  Survival 72 Hours After Ingestion, Survivors/Sample: 5/19
Acetaminophen toxicity [10]; pre-feeding 23 Days
  Survival 72 Hours After Ingestion (%): 100%
  Survival 72 Hours After Ingestion, Survivors/Sample: 20/20
Acetaminophen toxicity [10]; twenty mice, pre-fed five weeks (about 1.75 grams beta-carotene)
  mice alive seventy-two hours after injection: thirteen of the mice were alive
Acetaminophen toxicity [10]; twenty mice, pre-fed twenty-three days (about 1.15 grams beta-carotene)
  mice alive seventy-two hours after injection: twenty of the mice were alive
Toxicity due to aspirin
  adverse side effects and toxicity due to aspirin: reduced adverse side effects and toxicity due to aspirin

## CC(=O)Nc1ccc(O)cc1 [acetaminophen]
[11]; normal dosages, normal patient
  half-life: about 21/2
[11]; severe hepatocellular injury
  half-life: over 4 hours
mice
  feeding following IP injection of a lethal dose: cease to feed
liver; acute acetaminophen toxicity
  time of hepatic failure after ingestion: three to five
liver; acute ingestion
  ingestion at which mortality is significantly higher: exceeds 25 grams
liver; adult
  toxic dosage: greater than 10 grams
liver; child
  toxic dosage: ≥ 140 milligrams per kilogram
liver; long term dosages, as low as
  dosage that has resulted in chronic liver disease: three
[12]
  solubility in water: soluble in water

## vitamin A
[13]
  duodenal ulcers and stress ulcers: could prevent duodenal ulcers and stress ulcers
Toxicity due to aspirin
  adverse side effects and toxicity due to aspirin: reduced adverse side effects and toxicity due to aspirin
